The values that follow come from article PMC5677090, “Multiple Behavior Phenotypes of the Fragile-X Syndrome Mouse Model Respond to Chronic Inhibition of Phosphodiesterase-4D (PDE4D)” (Scientific Reports, 2017).

As usually defined, the IC50 is the concentration at which inhibition is half-maximal.

This assay deals with T1, PDE4B (Mus musculus, UniProt Q8VBU5).
T1 sequence (Q8VBU5 1-721): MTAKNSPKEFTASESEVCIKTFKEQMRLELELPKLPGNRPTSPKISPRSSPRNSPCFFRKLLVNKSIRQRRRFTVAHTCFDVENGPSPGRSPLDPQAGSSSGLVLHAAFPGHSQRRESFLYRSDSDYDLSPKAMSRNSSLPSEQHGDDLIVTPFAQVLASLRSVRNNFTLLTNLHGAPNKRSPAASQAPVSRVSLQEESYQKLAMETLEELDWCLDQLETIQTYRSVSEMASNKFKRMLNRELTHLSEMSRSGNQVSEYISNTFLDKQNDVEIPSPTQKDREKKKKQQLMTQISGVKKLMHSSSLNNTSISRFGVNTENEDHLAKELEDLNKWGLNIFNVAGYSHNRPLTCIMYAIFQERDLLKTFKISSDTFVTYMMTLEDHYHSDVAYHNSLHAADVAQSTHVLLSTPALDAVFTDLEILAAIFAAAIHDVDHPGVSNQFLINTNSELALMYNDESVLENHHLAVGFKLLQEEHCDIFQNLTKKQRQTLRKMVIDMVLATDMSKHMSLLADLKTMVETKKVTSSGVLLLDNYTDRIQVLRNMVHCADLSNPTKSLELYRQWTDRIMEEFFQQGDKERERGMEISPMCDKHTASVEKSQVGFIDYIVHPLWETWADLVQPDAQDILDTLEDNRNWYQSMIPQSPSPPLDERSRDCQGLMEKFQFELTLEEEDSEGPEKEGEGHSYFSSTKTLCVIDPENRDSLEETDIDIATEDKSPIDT
The assay can be described thus: PDE4B inhibition IC50, selectivity comparison (assay details not given). It is filed as biochemical.

SMILES strings stand for the structures.

`O=C(O)Cc1ccc(Cc2cc(-c3cccc(Cl)c3)nc(C(F)(F)F)c2)cc1` [BPN14770] displayed an IC50 of 2.12 µM.
